Laboratory results published in PMC11240562 (2024).

Assays:
[1] = tested on: ODN3/ODN4 duplex (X = ^Am2dA, Y = T), dye-labelled (DNA, duplex, ^Am2dA (N6-adenosine bearing 1-aminoadamantane via C2 linker) at 6 of strand 1) CTCAGAGTAAGG/CCTTACTCTGAG; assay: FAM/Dabcyl fluorescence time course, kout/kin; conditions: Na+ (150 mM NaCl, sodium phosphate), apparent, host binds guest tethered to DNA, duplex dissociates, 10 mM phosphate pH 7.0, 37 °C
[2] = tested on: ODN1/ODN2 duplex (X = A, Y = T) (DNA, duplex) CTCAGAGTAAGG/CCTTACTCTGAG; assay: UV melting; conditions: Na+ (150 mM NaCl, sodium phosphate); no significant Tm change; duplex 2 μM, CB[7] 4 μM; 10 mM phosphate pH 7.0
[3] = tested on: ODN1/ODN2 duplex (X = ^Am3dA, Y = T) (DNA, duplex, ^Am3dA (N6-adenosine bearing 1-aminoadamantane via C3 linker) at 6 of strand 1) CTCAGAGTAAGG/CCTTACTCTGAG; assay: UV melting; conditions: Na+ (150 mM NaCl, sodium phosphate); destabilisation (Tm lowered by CB[7]); duplex 2 μM, CB[7] 4 μM; 10 mM phosphate pH 7.0
[4] = tested on: ODN1/ODN2 duplex (X = ^Am4dA, Y = T) (DNA, duplex, ^Am4dA (N6-adenosine bearing 1-aminoadamantane via C4 linker) at 6 of strand 1) CTCAGAGTAAGG/CCTTACTCTGAG; assay: UV melting; conditions: Na+ (150 mM NaCl, sodium phosphate); destabilisation (Tm lowered by CB[7]); duplex 2 μM, CB[7] 4 μM; 10 mM phosphate pH 7.0
[5] = tested on: ODN1/ODN2 duplex (X = ^Am2dA, Y = T) (DNA, duplex, ^Am2dA (N6-adenosine bearing 1-aminoadamantane via C2 linker) at 6 of strand 1) CTCAGAGTAAGG/CCTTACTCTGAG; assay: UV melting; conditions: Na+ (150 mM NaCl, sodium phosphate); destabilisation (Tm lowered by CB[7]); duplex 2 μM, CB[7] 4 μM; 10 mM phosphate pH 7.0

With `O=C1N2CN3C(=O)N4CN5C(=O)N6CN7C(=O)N8CN9C(=O)N%10CN%11C(=O)N%12CN%13C(=O)N%14CN1C1C2N2CN%15C(=O)N(CN%16C(=O)N(CN%17C(=O)N(CN%18C(=O)N(CN%19C(=O)N(CN%20C(=O)N(CN1C2=O)C%14C%13%20)C%12C%11%19)C%10C9%18)C8C7%17)C6C5%16)C4C3%15` (centres unmarked) the Kd [1] was 1.0 × 10^–9 M, the binding [2] was “no” and the ΔTm [3] was 3.6 °C. It also gave a ΔTm [4] of 4.7 °C and a ΔTm [5] of 20.4 °C.
